# Article PMC9098524, “Structural basis of ion – substrate coupling in the Na^+-dependent dicarboxylate transporter VcINDY” (Nature Communications, 2022)
# Molecular target: T1, VcINDY (Vibrio cholerae, UniProt Q9KNE0)
# T1 construct: gene VC_A0025
# Test: intrinsic tryptophan fluorescence quenching ([…] nm excitation, […] nm emission), quadratic binding fit
# Details: read-out: apparent Kd
structure (smiles),measurement,value
O=C(O)CCC(=O)O [succinate],Kd,92.2 ± 47.4 µM
